Experimental data from ChEMBL document CHEMBL3137667, “[Drug-induced liver injury; fourteenth updated edition of the bibliographic database of liver injuries and related drugs]” (Gastroenterol Clin Biol, 2004).

Columns and labels:
[1] = Highest frequency of moderate liver toxicity observed during clinical trials, expressed as a percentage. [column '% BIOL' in source]; settings: human
[2] = Highest frequency of acute liver toxicity observed during clinical trials, expressed as a percentage. [column '% AIGUE' in source]; settings: human
[3] = human, serum
[4] = human, serum; remark: listed apart in the source
[5] = human
[6] = human; remark: listed apart in the source
[7] = human; remark: listed apart in the source
[8] = human, serum, 4383 h
[9] = human; remark: listed apart in the source
[10] = human; remark: listed apart in the source
[11] = human; remark: listed apart in the source
[12] = human; remark: listed apart in the source
[13] = human; remark: listed apart in the source
[14] = human; remark: listed apart in the source
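Wherever Hepatotoxicity (association with vascular disease) is given: count of indexed literature references reporting vascular liver injury in humans, e.g. peliosis hepatitis, hepatic veno-occlusive disease or Budd-Chiari syndrome.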
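Wherever Hepatotoxicity (benign tumour) is given: value is a count of indexed literature references citing a benign tumour confirmed by histopathology.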
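Wherever Hepatotoxicity (choleostasis) is given: human cholestatic liver injury, shown by histopathology or by peak ALT or AST elevation over alkaline phosphatase ratio below 2, value counts indexed literature reports.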
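Wherever Hepatotoxicity (chronic liver disease) is given: chronic liver injury confirmed by histopathology or persistently raised serum aminotransferase activity beyond 6 months, value given as the count of indexed literature references.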
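Wherever Hepatotoxicity (cirrhosis) is given: value is a count of indexed literature references reporting cirrhosis confirmed by histopathology.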
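Wherever Hepatotoxicity (cytolytic) is given: human cytolytic liver injury, shown by histopathology or by a ratio above 5 of peak ALT or AST elevation to alkaline phosphatase elevation, value counts indexed references.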
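Wherever Hepatotoxicity (granulomatous hepatitis) is given: value is a count of indexed literature references reporting granulomatous liver disease confirmed by histopathology.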
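Wherever Hepatotoxicity (malignant tumour) is given: malignant tumour confirmed by histopathology, value gives the count of indexed literature references reporting it.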
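Wherever Hepatotoxicity (severe hepatitis) is given: human clinical data: severe hepatitis, meaning potentially life-threatening liver failure or clinically observed cases, the value counts how many indexed literature references report it.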
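Wherever Hepatotoxicity (steatosis) is given: steatosis confirmed by histopathology, value is the count of indexed references.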

| Structure (SMILES) | Hepatotoxicity (moderate) [1] [%] | Hepatotoxicity (acute) [2] [%] | Hepatotoxicity (moderate) [3] | Hepatotoxicity (acute) [4] | Hepatotoxicity (cytolytic) [5] | Hepatotoxicity (choleostasis) [6] | Hepatotoxicity (severe hepatitis) [7] | Hepatotoxicity (chronic liver disease) [8] | Hepatotoxicity (cirrhosis) [9] | Hepatotoxicity (granulomatous hepatitis) [10] | Hepatotoxicity (association with vascular disease) [11] | Hepatotoxicity (steatosis) [12] | Hepatotoxicity (malignant tumour) [13] | Hepatotoxicity (benign tumour) [14] | Hepatotoxicity (moderate) ([1]; Liver) [%] | Hepatotoxicity (acute) ([2]; Liver) [%] | Hepatotoxicity (severe hepatitis) ([7]; Liver) |
| --- | --- | --- | --- | --- | --- | --- | --- | --- | --- | --- | --- | --- | --- | --- | --- | --- | --- |
| CCOC(=O)[C@H](CCc1ccccc1)N[C@@H](C)C(=O)N1Cc2ccccc2C[C@H]1C(=O)O | 10 | 0 | 3 | 1 | 0 | 0 | 0 | 0 | 0 | 0 | 0 | 0 | 0 | 0 | – | – | – |
| CO/N=C(\C(=O)N[C@@H]1C(=O)N2C(C(=O)[O-])=C(C[N+]3(C)CCCC3)CS[C@H]12)c1csc(N)n1 | – | – | 52 | 0 | 0 | 0 | – | 0 | 0 | 0 | 0 | 0 | 0 | 0 | 37.5 | 0 | 0 |
| CC(=O)N[C@@H]1[C@H](Oc2c3cc4cc2Oc2ccc(cc2Cl)[C@@H](O[C@@H]2O[C@@H](CO)[C@@H](O)[C@H](O)[C@@H]2NC(C)=O)[C@@H]2NC(=O)[C@H](NC(=O)[C@@H]4NC(=O)[C@H]4NC(=O)[C@@H](Cc5ccc(c(Cl)c5)O3)NC(=O)[C@H](N)c3ccc(O)c(c3)Oc3cc(O)cc4c3)c3ccc(O)c(c3)-c3c(O[C@H]4O[C@H](CO)[C@@H](O)[C@@H](O)[C@@H]4O)cc(O)cc3[C@@H](C(=O)O)NC2=O)O[C@@H](CO)[C@@H](O)[C@@H]1O | 26.9 | 0.9 | 36 | 4 | 1 | 1 | 0 | 0 | 0 | 0 | 0 | 0 | 0 | 0 | – | – | – |
| CCc1nc(N)nc(N)c1-c1ccc(Cl)cc1.Nc1ccc(S(=O)(=O)c2ccc(N)cc2)cc1 | 25.3 | 2.9 | 1 | 3 | 1 | 0 | 0 | 0 | 0 | 0 | 0 | 0 | 0 | 0 | – | – | – |
| O=[N+]([O-])c1ccc(O)c([N+](=O)[O-])c1 [2,4-DINITROPHENOL] | 0 | 0 | 0 | 3 | 0 | 0 | 2 | 0 | 0 | 0 | 0 | 0 | 0 | 0 | – | – | – |
| COCc1c(C(=O)OC(C)C)ncc2[nH]c3ccc(OCc4ccccc4)cc3c12 [ABECARNIL] | 8 | 0 | 1 | 0 | 0 | 0 | 0 | 0 | 0 | 0 | 0 | 0 | 0 | 0 | – | – | – |
| N[C@H](C(=O)O)[C@@H]1CC(Cl)=NO1 [ACIVICIN] | 62 | 0 | 3 | 0 | 0 | 0 | 0 | 0 | 0 | 0 | 0 | 0 | 0 | 0 | – | – | – |
| Nc1nc2c(ncn2COCCO)c(=O)[nH]1 [ACYCLOVIR] | – | – | 18 | 1 | 1 | 0 | – | 0 | 0 | 0 | 0 | 0 | 0 | 0 | 50 | 1.9 | 0 |
| Nc1ncnc2c1ncn2CCOCP(=O)(O)O [ADEFOVIR] | 33.3 | 7.4 | 2 | 1 | 1 | 0 | 0 | 0 | 0 | 0 | 0 | 0 | 0 | 0 | – | – | – |
| CC(N)C(=O)OC(C)(C)Cc1ccc(Cl)cc1 (centres undefined) [ALAPROCLATE] | 0 | 0 | 1 | 0 | 0 | 0 | 0 | 0 | 0 | 0 | 0 | 0 | 0 | 0 | – | – | – |
| O=C(O)CN1C(=O)c2cccc3cccc(c23)C1=O [ALRESTATIN] | 11.1 | 0 | 2 | 0 | 0 | 0 | 0 | 0 | 0 | 0 | 0 | 0 | 0 | 0 | – | – | – |
